In PMC11374673, “Discovery of isoquinoline sulfonamides as allosteric gyrase inhibitors with activity against fluoroquinolone-resistant bacteria” (Nature Chemistry, 2024):
≈ marks a conversion by molar mass, not a printed value. Where “and” joins values, the source holds several entries; their conditions need not be identical. Identical values can stand only once. Like-named read-outs stand apart in the source and are kept apart here.

How the values were obtained:
E. coli W3110 = experiment: MIC by broth microdilution; type: cell-based, Escherichia coli; settings: for MIC: broth microdilution, read-out: MIC E. coli W3110; for antimicrobial activity: relative to parent compound
Method in brief: (§1)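 Broth microdilution in CAMHB: twofold compound series inoculated with 100-fold-diluted bacteria from exponential growth (OD600 0.5, 37 °C); kanamycin 50 µg ml^−1 added for Keio collection strains. Overnight incubation, 37 °C, 600 r.p.m. shaking.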

HepG2 = experiment: Cytotoxicity assay (MTT); type: cell-based, human; settings: for IC50: MTT, 24 h
Description: (§2) HepG2 (ATCC HB-8065) and HEK293T (ATCC CRL-3216) cell lines were cultured at 37 °C and 7% CO2 in Dulbecco’s modified Eagle medium (Sigma-Aldrich, D6546) with GlutaMax, penicillin (100 µg ml^−1), streptomycin (100 µg ml^−1) and 10% fetal calf serum. Cells were passaged twice a week by first detaching using 0.05% trypsin in phosphate-buffered saline (PBS) and then diluting to appropriate confluence. Compound cytotoxicity was evaluated using the standard (3-(4,5-dimethylthiazol-2-yl)-2,5-diphenyltetrazolium bromide (MTT) assay protocol (MTT assay protocol for cell viability and proliferation, Merck) with slight changes. HepG2 and HEK293T cells were seeded at a density of 1.5 × 10^4 cells per well in a clear 96-well tissue culture treated plate in a final volume of 100 µl in Dulbecco’s modified Eagle medium, supplemented with fetal bovine serum (1%), GlutaMax and penicillin/streptomycin. Cells were incubated for 24 h at 37 °C, 7% CO2 to allow cells to attach to the plates. […] Incubation was done for 24 h at 37 °C, 7% CO2. After the incubation, MTT was added to each well at a final concentration of 0.40 mg ml^−1. The plates were then incubated for 2 h at 37 °C, 7% CO2. Medium was carefully removed via suction, and purple formazan crystals were resuspended in 100 µl DMSO. Absorbance was read at 570 nm using a Clariostar plate reader with MARS (V4.20). The data were then analysed with GraphPad Prism software. IC50 values were calculated using non-linear fitted curve with variable slope settings, with values adjusted for background (plotted absorbance (ABS)sample = (ABSsample – ABSbackground) / (ABSvehicle – ABSbackground)). Technical triplicates for each condition were used, along with biological duplicates.

HEK293T = experiment: Cytotoxicity assay (MTT); type: cell-based, human; settings: for MTT data (raw reading) / MTT data (raw readout): HEK293T; for IC50: 24 h, MTT
Description: as §2

K. pneumoniae ATCC 29665 = experiment: MIC by broth microdilution; type: cell-based, Klebsiella pneumoniae; settings: read-out: MIC K. pneumoniae ATCC 29665
Method in brief: as §1

[1] = Klebsiella pneumoniae, ATCC29665, broth microdilution

## O=S(=O)(NC[C@@H]1CC[C@@H](c2ccc(-c3ccc(F)nc3)cc2)N1)c1cccc2cnccc12 [Compound 98]
E. coli W3110; Escherichia coli, W3110, WT
  MIC: > 50 µM
E. coli W3110; WT
  MIC: > 50 µM
E. coli W3110
  antimicrobial activity: completely inactive
HepG2; HepG2, 0.023 uM, n = 1
  MTT data (raw reading): 0.370 and 0.364 and 0.367
HepG2; HepG2, 0.023 uM, n = 2
  MTT data (raw reading): 0.490 and 0.437 and 0.362
HepG2; HepG2, 0.068 uM, n = 1
  MTT data (raw reading): 0.458 and 0.420 and 0.439
HepG2; HepG2, 0.068 uM, n = 2
  MTT data (raw reading): 0.379 and 0.325 and 0.398
HepG2; HepG2, 0.21 uM, n = 1
  MTT data (raw reading): 0.404 and 0.366 and 0.380
HepG2; HepG2, 0.21 uM, n = 2
  MTT data (raw reading): 0.373 and 0.308 and 0.356
HepG2; HepG2, 0.62 uM, n = 1
  MTT data (raw reading): 0.411 and 0.337 and 0.367
HepG2; HepG2, 0.62 uM, n = 2
  MTT data (raw reading): 0.419 and 0.335 and 0.320
HepG2; HepG2, 1.85 uM, n = 1
  MTT data (raw reading): 0.394 and 0.411 and 0.409
HepG2; HepG2, 1.85 uM, n = 2
  MTT data (raw reading): 0.343 and 0.331 and 0.334
HepG2; HepG2, 5.6 uM, n = 1
  MTT data (raw reading): 0.374 and 0.346 and 0.373
HepG2; HepG2, 5.6 uM, n = 2
  MTT data (raw reading): 0.307 and 0.313 and 0.306
HepG2; HepG2, 16.7 uM, n = 1
  MTT data (raw reading): 0.262 and 0.289 and 0.283
HepG2; HepG2, 16.7 uM, n = 2
  MTT data (raw reading): 0.250 and 0.271 and 0.247
HepG2; HepG2, 50 uM, n = 1
  MTT data (raw reading): 0.250 and 0.255 and 0.242
HepG2; HepG2, 50 uM, n = 2
  MTT data (raw reading): 0.199 and 0.179 and 0.169
HepG2; Homo sapiens, HepG2, 24 h
  IC50: 66 µM
HepG2
  IC50: > 50 µM
HEK293T; 0.023 uM, n = 1
  MTT data (raw reading): 1.493 and 1.422 and 1.498
HEK293T; 0.023 uM, n = 2
  MTT data (raw reading): 1.187 and 1.056 and 1.058
HEK293T; 0.068 uM, n = 1
  MTT data (raw reading): 1.655 and 1.492 and 1.570
HEK293T; 0.068 uM, n = 2
  MTT data (raw reading): 1.098 and 1.078 and 1.080
HEK293T; 0.21 uM, n = 1
  MTT data (raw reading): 1.461 and 1.519 and 1.638
HEK293T; 0.21 uM, n = 2
  MTT data (raw reading): 1.171 and 1.012 and 1.113
HEK293T; 0.62 uM, n = 1
  MTT data (raw reading): 1.554 and 1.331 and 1.351
HEK293T; 0.62 uM, n = 2
  MTT data (raw reading): 1.166 and 1.093 and 0.989
HEK293T; 1.85 uM, n = 1
  MTT data (raw reading): 1.381 and 1.338 and 1.408
HEK293T; 1.85 uM, n = 2
  MTT data (raw reading): 1.030 and 0.960 and 0.941
HEK293T; 5.6 uM, n = 1
  MTT data (raw reading): 1.292 and 1.223 and 1.327
HEK293T; 5.6 uM, n = 2
  MTT data (raw reading): 0.968 and 1.003 and 0.916
HEK293T; 16.7 uM, n = 1
  MTT data (raw reading): 1.160 and 1.126 and 1.075
HEK293T; 16.7 uM, n = 2
  MTT data (raw reading): 0.762 and 0.627 and 0.780
HEK293T; 50 uM, n = 1
  MTT data (raw reading): 0.797 and 0.734
HEK293T; 50 uM, n = 2
  MTT data (raw reading): 0.478 and 0.528
HEK293T; Homo sapiens, HEK-293T
  IC50: 49 µM
K. pneumoniae ATCC 29665; [1]
  MIC: > 50 µM
K. pneumoniae ATCC 29665; broth microdilution
  MIC: > 50 µM

## O=S(=O)(NCCNCc1ccc(-c2ccccc2)cc1)c1cccc2cnccc12 [Compound 56]
E. coli W3110; Escherichia coli, W3110, WT
  MIC: 6.25 µM (≈ 2.61 µg/mL)
E. coli W3110
  antimicrobial activity: equally potent
HepG2; HepG2, 0.023 uM, experiment n = 1, technical triplicates
  MTT data (raw readout): 0.559 and 0.503 and 0.453
HepG2; HepG2, 0.023 uM, experiment n = 2, technical triplicates
  MTT data (raw readout): 0.586 and 0.547 and 0.578
HepG2; HepG2, 0.068 uM, experiment n = 1, technical triplicates
  MTT data (raw readout): 0.490 and 0.488 and 0.494
HepG2; HepG2, 0.068 uM, experiment n = 2, technical triplicates
  MTT data (raw readout): 0.579 and 0.616 and 0.615
HepG2; HepG2, 0.21 uM, experiment n = 1, technical triplicates
  MTT data (raw readout): 0.573 and 0.504 and 0.507
HepG2; HepG2, 0.21 uM, experiment n = 2, technical triplicates
  MTT data (raw readout): 0.577 and 0.574 and 0.618
HepG2; HepG2, 0.62 uM, experiment n = 1, technical triplicates
  MTT data (raw readout): 0.495 and 0.510 and 0.493
HepG2; HepG2, 0.62 uM, experiment n = 2, technical triplicates
  MTT data (raw readout): 0.602 and 0.579 and 0.597
HepG2; HepG2, 1.85 uM, experiment n = 1, technical triplicates
  MTT data (raw readout): 0.533 and 0.518 and 0.529
HepG2; HepG2, 1.85 uM, experiment n = 2, technical triplicates
  MTT data (raw readout): 0.634 and 0.597 and 0.638
HepG2; HepG2, 5.6 uM, experiment n = 1, technical triplicates
  MTT data (raw readout): 0.550 and 0.534 and 0.503
HepG2; HepG2, 5.6 uM, experiment n = 2, technical triplicates
  MTT data (raw readout): 0.619 and 0.618 and 0.638
HepG2; HepG2, 16.7 uM, experiment n = 1, technical triplicates
  MTT data (raw readout): 0.186 and 0.116 and 0.134
HepG2; HepG2, 50 uM, experiment n = 1, technical triplicates
  MTT data (raw readout): 0.0047 and 0.0027
HepG2; Homo sapiens, HepG2, 24 h
  IC50: 16.7 µM
HEK293T; 0.023 uM, experiment n = 1, technical triplicates
  MTT data (raw readout): 0.760 and 0.712 and 0.710
HEK293T; 0.023 uM, experiment n = 2, technical triplicates
  MTT data (raw readout): 0.814 and 0.790 and 0.847
HEK293T; 0.068 uM, experiment n = 1, technical triplicates
  MTT data (raw readout): 0.777 and 0.824 and 0.787
HEK293T; 0.068 uM, experiment n = 2, technical triplicates
  MTT data (raw readout): 0.796 and 0.816 and 0.794
HEK293T; 0.21 uM, experiment n = 1, technical triplicates
  MTT data (raw readout): 0.818 and 0.751 and 0.739
HEK293T; 0.21 uM, experiment n = 2, technical triplicates
  MTT data (raw readout): 0.813 and 0.836 and 0.832
HEK293T; 0.62 uM, experiment n = 1, technical triplicates
  MTT data (raw readout): 0.783 and 0.761 and 0.744
HEK293T; 0.62 uM, experiment n = 2, technical triplicates
  MTT data (raw readout): 0.785 and 0.778 and 0.750
HEK293T; 1.85 uM, experiment n = 1, technical triplicates
  MTT data (raw readout): 0.680 and 0.683 and 0.658
HEK293T; 1.85 uM, experiment n = 2, technical triplicates
  MTT data (raw readout): 0.720 and 0.749 and 0.788
HEK293T; 5.6 uM, experiment n = 1, technical triplicates
  MTT data (raw readout): 0.523 and 0.537 and 0.570
HEK293T; 5.6 uM, experiment n = 2, technical triplicates
  MTT data (raw readout): 0.582 and 0.590 and 0.593
HEK293T; 16.7 uM, experiment n = 1, technical triplicates
  MTT data (raw readout): 0.243 and 0.263 and 0.287
HEK293T; 16.7 uM, experiment n = 2, technical triplicates
  MTT data (raw readout): 0.271 and 0.304 and 0.282
HEK293T; 50 uM, experiment n = 1, technical triplicates
  MTT data (raw readout): 0.032 and 0.041 and 0.051
HEK293T; 50 uM, experiment n = 2, technical triplicates
  MTT data (raw readout): 0.036 and 0.023 and 0.035
HEK293T; Homo sapiens, HEK-293T
  IC50: 10 µM
HEK293T
  IC50: 10.4 µM
K. pneumoniae ATCC 29665; [1]
  MIC: 12.5 µM (≈ 5.22 µg/mL)
